This experiment has as its target T1, 11β-HSD 1 (Homo sapiens, UniProt P28845).
T1 construct: detecting cortisol generated from cortisterone by human liver microsomes; from tissue; host or cells: human liver microsomes
Briefly: In vitro inhibition of 11β-HSD 1, HTRF detection of cortisol generated by human liver microsomes. Type of experiment: biochemical. To be noted: 1 μM test compound, 100% indicates no inhibition, zero or below zero indicates complete inhibition (relative to carbenoxolone). The protocol: Briefly, compounds were incubated for 1 hour at 37° C. in Tris buffer (20 mM tris, 5 mM EDTA, pH 6.0) containing NADPH (200 μM) and cortisone (80 nM). Cortisol generated in the reaction is then detected with a competitive immunoassay, involving two HTRF conjugates: cortisol linked to XL665 and anti-cortisol antibody labeled with Europium cryptate. The incubation period for detection reaction was typically 2 hours. The amount of cortisol is determined by reading the time-resolved fluorescence of the wells (Ex 320/75 nm; Em 615/8.5 nm and 665/7.5 nm). The ratio of the two emission signals is then calculated (Em665*10000/Em615). […] Each assay also contained a calibration curve with cortisol to transform the fluorescent data into cortisol concentrations. Percent inhibition of each compound was determined relative to the carbenoxolone signal. In Table 2 the 11β-HSD 1 inhibitory activities at 1 μM concentration of test compound, determined as described above, of the compounds listed in Table 3 are compiled, wherein 100% indicates no inhibition and a value of zero or below zero indicates complete inhibition.

T1 sequence (P28845 whole entry): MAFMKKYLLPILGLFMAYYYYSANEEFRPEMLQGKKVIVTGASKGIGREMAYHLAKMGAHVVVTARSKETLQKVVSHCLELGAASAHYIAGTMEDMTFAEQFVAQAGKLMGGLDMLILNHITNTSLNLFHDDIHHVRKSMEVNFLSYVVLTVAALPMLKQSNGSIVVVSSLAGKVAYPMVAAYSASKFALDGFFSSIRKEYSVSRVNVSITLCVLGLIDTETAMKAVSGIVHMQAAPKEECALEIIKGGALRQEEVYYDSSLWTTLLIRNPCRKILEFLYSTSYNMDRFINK

Take `O=C(c1ccc2c(c1)OCCO2)N1[C@@H]2CC[C@H]1C[C@@H](c1ccc3ccccc3c1)C2` [Example 157, endo-(2,3-Dihydro-benzo[1,4]dioxin-6-yl)-(3-naphthalen-2-yl-8-aza-bicyclo[3.2.1]oct-8-yl)-methanone]: the “Inhibitory activity on 11β-HSD 1, % CTL” value was 38 % CTL.
The same measure, in the same setting: with `CNC(=O)c1ccc(C(=O)N2[C@@H]3CC[C@H]2C[C@@H](c2ccc(F)cc2)C3)cc1` [Example 79, endo-4-[3-(4-Fluoro-phenyl)-8-aza-bicyclo[3.2.1]octane-8-carbonyl]N-methyl-benzamide] the figure was 90 % CTL.
In the case of `O=C(c1ccc(-c2cnco2)cc1)N1[C@@H]2CC[C@H]1C[C@@H](c1ccc(F)cc1)C2` [Example 87, endo-[3-(4-Fluoro-phenyl)-8-aza-bicyclo[3.2.1]oct-8-yl]-(4-oxazol-5-yl-phenyl)-methanone], the “Inhibitory activity on 11β-HSD 1, % CTL” value is recorded as −2 % CTL.
On the same count and under the same terms, with `CN1C(=O)Cc2cc(C(=O)N3[C@@H]4CC[C@H]3C[C@@H](c3ccc(F)cc3)C4)ccc21` [Example 78] the figure was 49 % CTL; with `Cc1cc2cc(C(=O)N3[C@@H]4CC[C@H]3C[C@@H](c3ccc(F)cc3)C4)ccc2[nH]1` [Example 50, endo-[3-(4-Fluoro-phenyl)-8-aza-bicyclo[3.2.1]oct-8-yl]-(2-methyl-1H-indol-5-yl)-methanone], 6 % CTL; with `O=C(c1ccc2c(c1)OCCO2)N1[C@@H]2CC[C@H]1C[C@@H](c1cccc(O)c1)C2` [Example 141, endo-(2,3-Dihydro-benzo[1,4]dioxin-6-yl)-[3-(3-hydroxy-phenyl)-8-aza-bicyclo[3.2.1]oct-8-yl]-methanone], 29 % CTL.
Same read-out and setting: with `NC(=O)c1cccc(C2CC3CCC(C2)N3C(=O)c2ccc3c(c2)OCCO3)c1` (stereo not drawn) [Example 149, 3-[8-(2,3-Dihydro-benzo[1,4]dioxine-6-carbonyl)-8-aza-bicyclo[3.2.1]oct-3-yl]-benzamide] the figure was 30 % CTL; with `COc1cc(C(=O)N2[C@@H]3CC[C@H]2C[C@@H](c2ccc(F)cc2)C3)cc(OC)c1O` [Example 181, endo-[3-(4-Fluoro-phenyl)-8-aza-bicyclo[3.2.1]oct-8-yl]-(4-hydroxy-3,5-dimethoxy-phenyl)-methanone], 18 % CTL; with `COc1ccc([C@H]2C[C@H]3CC[C@@H](C2)N3C(=O)c2ccc3c(c2)OCCO3)cc1` [Example 134, endo-(2,3-Dihydro-benzo[1,4]dioxin-6-yl)-[3-(4-methoxy-phenyl)-8-aza-bicyclo[3.2.1]oct-8-yl]-methanone], −5 % CTL.
The same measure, in the same setting: with `COc1ccc(C(=O)N2[C@@H]3CC[C@H]2C[C@@H](c2ccc(F)cc2)C3)c(OC)c1` [Example 117, endo-(2,4-Dimethoxy-phenyl)-[3-(4-fluoro-phenyl)-8-aza-bicyclo[3.2.1]oct-8-yl]-methanone] the figure was 53 % CTL; with `N#Cc1ccc(C(=O)N2[C@@H]3CC[C@H]2C[C@@H](c2ccc(F)cc2)C3)cc1` [Example 105, endo-4-[3-(4-Fluoro-phenyl)-8-aza-bicyclo[3.2.1]octane-8-carbonyl]-benzonitrile], 58 % CTL; with `Nc1ccc(C(=O)N2[C@@H]3CC[C@H]2C[C@@H](c2ccc(F)cc2)C3)cc1Cl` [Example 173, endo-(4-Amino-3-chloro-phenyl)-[3-(4-fluoro-phenyl)-8-aza-bicyclo[3.2.1]oct-8-yl]-methanone], −46 % CTL.
Regarding `O=C(c1cccc(F)c1)N1[C@@H]2CC[C@H]1C[C@@H](c1ccc(F)cc1)C2` [Example 104, endo-(3-Fluoro-phenyl)-[3-(4-fluoro-phenyl)-8-aza-bicyclo[3.2.1]oct-8-yl]-methanone], the “Inhibitory activity on 11β-HSD 1, % CTL” value was found to be 43 % CTL.
On the same count and under the same terms, with `C[Si](C)(C)c1ccc([C@H]2C[C@H]3CC[C@@H](C2)N3C(=O)c2ccc3c(c2)OCCO3)cc1` [Example 143, endo-(2,3-Dihydro-benzo[1,4]dioxin-6-yl)-[3-(4-trimethyl-silyl-phenyl)-8-aza-bicyclo[3.2.1]oct-8-yl]-methanone] the figure was 58 % CTL; with `O=C(c1cccc(O)c1)N1[C@@H]2CC[C@H]1C[C@@H](c1ccc(F)cc1)C2` [Example 129, endo-[3-(4-Fluoro-phenyl)-8-aza-bicyclo[3.2.1]oct-8-yl]-(3-hydroxy-phenyl)-methanone], −1 % CTL.
Consider `O=C(c1ccccn1)N1[C@@H]2CC[C@H]1C[C@@H](c1ccc(F)cc1)C2` [Example 98, endo-[3-(4-Fluoro-phenyl)-8-aza-bicyclo[3.2.1]oct-8-yl]-pyridin-2-yl-methanone], for which the “Inhibitory activity on 11β-HSD 1, % CTL” value (1 µM) amounted to 74 % CTL.
The same measure, in the same setting: under `NC(=O)c1ccc(C(=O)N2[C@@H]3CC[C@H]2C[C@@H](c2ccc(F)cc2)C3)cc1` [Example 81, endo-4-[3-(4-Fluoro-phenyl)-8-aza-bicyclo[3.2.1]octane-8-carbonyl]-benzamide] stands −9 % CTL.
As to `NS(=O)(=O)c1ccc(C(=O)N2[C@@H]3CC[C@H]2C[C@@H](c2ccc(F)cc2)C3)cc1` [Example 119, endo-4-[3-(4-Fluoro-phenyl)-8-aza-bicyclo[3.2.1]octane-8-carbonyl]-benzenesulfonamide], the “Inhibitory activity on 11β-HSD 1, % CTL” value came out at 95 % CTL.
Take `Cn1ccc2ccc(C(=O)N3[C@@H]4CC[C@H]3C[C@@H](c3ccc(F)cc3)C4)cc21` [Example 53, endo-[3-(4-Fluoro-phenyl)-8-aza-bicyclo[3.2.1]oct-8-yl]-(1-methyl-1H-indol-6-yl)-methanone]: the “Inhibitory activity on 11β-HSD 1, % CTL” value was −55 % CTL.
Still for that read-out and setting: with `O=C(c1ccccc1Cl)N1[C@@H]2CC[C@H]1C[C@@H](c1ccc(F)cc1)C2` [Example 111, endo-(2-Chloro-phenyl)-[3-(4-fluoro-phenyl)-8-aza-bicyclo[3.2.1]oct-8-yl]-methanone] the figure was 61 % CTL; with `Cc1nc(-c2cccc(C(=O)N3[C@@H]4CC[C@H]3C[C@@H](c3ccc(F)cc3)C4)c2)no1` [Example 88, endo-[3-(4-Fluoro-phenyl)-8-aza-bicyclo[3.2.1]oct-8-yl]-[3-(5-methyl-[1,2,4]oxadiazol-3-yl)-phenyl]-methanone], 98 % CTL; with `O=C(c1ccc2c(c1)OC(F)(F)O2)N1[C@@H]2CC[C@H]1C[C@@H](c1ccc(F)cc1)C2` [Example 76, endo-(2,2-Difluoro-benzo[1,3]dioxol-5-yl)-[3-(4-fluoro-phenyl)-8-aza-bicyclo[3.2.1]oct-8-yl]-methanone], 76 % CTL.
The same measure, in the same setting: with `O=C(c1ccc2[nH]cnc2c1)N1[C@@H]2CC[C@H]1C[C@@H](c1ccc(F)cc1)C2` [Example 1, endo-(1H-Benzoimidazol-5-yl)-[3-(4-fluoro-phenyl)-8-aza-bicyclo[3.2.1]oct-8-yl]-methanone] the figure was −18 % CTL; with `CC(C)(C)Oc1ccc(C(=O)N2[C@@H]3CC[C@H]2C[C@@H](c2ccc(F)cc2)C3)cc1` [Example 49, endo-(4-tert-Butoxy-phenyl)-[3-(4-fluoro-phenyl)-8-aza-bicyclo[3.2.1]oct-8-yl]-methanone], 67 % CTL.
The same measure, in the same setting: under `CNc1cccc(C(=O)N2[C@@H]3CC[C@H]2C[C@@H](c2ccc(F)cc2)C3)c1` [Example 83, endo-[3-(4-Fluoro-phenyl)-8-aza-bicyclo[3.2.1]oct-8-yl]-(3-methylamino-phenyl)-methanone] stands −30 % CTL; under `CCn1ncc(C(=O)N2[C@@H]3CC[C@H]2C[C@@H](c2ccc(C)cc2)C3)c1C` [Example 38, endo-(1-Ethyl-5-methyl-1H-pyrazol-4-yl)-(3-p-tolyl-8-aza-bicyclo[3.2.1]oct-8-yl)-methanone], 12 % CTL; under `O=C(c1ccc(Cl)cc1)N1[C@@H]2CC[C@H]1C[C@@H](c1ccc(F)cc1)C2` [Example 112, endo-(4-Chloro-phenyl)-[3-(4-fluoro-phenyl)-8-aza-bicyclo[3.2.1]oct-8-yl]-methanone], 40 % CTL.
In the case of `O=C(c1ccc2c(c1)OCCO2)N1C2CCC1CC(c1ccc(Cl)cc1F)C2` (stereo not drawn) [Example 144, [3-(4-Chloro-2-fluoro-phenyl)-8-aza-bicyclo[3.2.1]oct-8-yl]-(2,3-dihydro-benzo[1,4]dioxin-6-yl)-methanone], the “Inhibitory activity on 11β-HSD 1, % CTL” value is −59 % CTL.
On the same count and under the same terms, with `Cc1cc(C(=O)N2[C@@H]3CC[C@H]2C[C@@H](c2ccc(F)cc2)C3)cc(C)c1O` [Example 164, endo-[3-(4-Fluoro-phenyl)-8-aza-bicyclo[3.2.1]oct-8-yl]-(4-hydroxy-3,5-dimethyl-phenyl)-methanone] the figure was −29 % CTL; with `CC(C)c1ccc([C@H]2C[C@H]3CC[C@@H](C2)N3C(=O)c2ccc3c(c2)OCCO3)cc1` [Example 136, endo-(2,3-Dihydro-benzo[1,4]dioxin-6-yl)-[3-(4-isopropyl-phenyl)-8-aza-bicyclo[3.2.1]oct-8-yl]-methanone], 17 % CTL.

These data come from US8609690B2, “Aryl- and heteroarylcarbonyl derivatives of substituted nortropanes, medicaments containing such compounds and their use” (Boehringer Ingelheim International GmbH, priority 2008, dated 2013).
